Results: patent publication US3932512A, “Antiviral 1,2,3,4-tetrahydro-1,-alkano naphthalenamine derivatives” (priority 1972, dated 1976)
Like-named read-outs stand apart in the source and are kept apart here.

Experiments:
mice = assay: toxicity of in vitro active anti-myxovirus compounds in mice; details: for Maximal non-toxic dose LD0, acute / Maximal non-toxic dose LD0, subacute: I/P; for toxicity compared with Amantadine or compound I: words
[1] = as above; details: mouse, in vivo, ip, I/P
Influenza A2 /Aichi/3/68 = assay: in vitro anti-myxovirus activity, influenza A2 /Aichi/3/68, G-2 cells (% inhibition of hemadsorption); type: cell-based, Influenza A2 /Aichi/3/68 (human); details: for inhibition at 40 µg/mL: 40 μg/ml; for inhibition at 10 µg/mL: 10 μg/ml; for inhibition at 20 µg/mL: 20 μg/ml; for inhibition at 30 µg/mL: 30 μg/ml; for inhibition at 50 µg/mL: 50 μg/ml; for inhibition at 60 µg/mL: 60 μg/ml; for inhibition at 70 µg/mL: 70 μg/ml; for inhibition at 80 µg/mL: 80 μg/ml; for inhibition at 90 µg/mL: 90 μg/ml; for inhibition at 100 µg/mL: 100 μg/ml
Influenza (swine) = assay: cells; type: cell-based; details: for inhibition at 30 µg/mL: 30 μg/ml; for inhibition at 80 µg/mL: 80 μg/ml; for inhibition at 100 µg/mL: 100 μg/ml
[2] = cytotoxicity in G-2 cells; type: cell-based; details: human; for CC50: 50% inhibition of cell growth, read-out: Cytotoxicity CTD50; for MNTC: maximal non-toxic concentration, read-out: Cytotoxicity CTD0
Experimental: In preparing the compounds for testing, they were handled aseptically throughout. The compounds were dissolved in a minimum amount of a suitable solvent and the final dilutions were made up to the required volume in a complete culture medium used in assay and in concentration not exceeding the predetermined maximum non-toxic levels.
The cell culture used in all primary in vitro anti-myxovirus assays was an established cell line of the human conjunctiva (G-2 cells). The cytotoxic studies of each of the compounds were performed prior to testing for antiviral activity to determine level of response of the cells to the potentially toxic action of the compounds.

[3] = 50% toxic dose LD50, acute, acute
[4] = 50% toxic dose LD50, subacute, subacute
[5] = Homo sapiens, 100 TCID50, read-out: % Inhibition

SMILES	Maximal non-toxic dose LD0, acute (mice) [mg/kg]	Maximal non-toxic dose LD0, subacute (mice) [mg/kg]	toxicity compared with Amantadine or compound I (mice)	LD50 [1, 3] [mg/kg]	LD50 [1, 4] [mg/kg]	inhibition at 40 µg/mL (Influenza A2 /Aichi/3/68; 100 TCID50) [%]	inhibition at 30 µg/mL (Influenza A2 /Aichi/3/68; Homo sapiens, 100 TCID50) [%]	inhibition at 50 µg/mL (Influenza A2 /Aichi/3/68; Homo sapiens, 100 TCID50) [%]	inhibition at 60 µg/mL (Influenza A2 /Aichi/3/68; Homo sapiens, 100 TCID50) [%]	inhibition at 70 µg/mL (Influenza A2 /Aichi/3/68; Homo sapiens, 100 TCID50) [%]	inhibition at 80 µg/mL (Influenza A2 /Aichi/3/68; Homo sapiens, 100 TCID50) [%]	inhibition at 90 µg/mL (Influenza A2 /Aichi/3/68; Homo sapiens, 100 TCID50) [%]	inhibition at 100 µg/mL (Influenza A2 /Aichi/3/68; [5]) [%]	inhibition at 30 µg/mL (Influenza (swine)) [%]	inhibition at 40 µg/mL (Influenza (swine); 40 μg/ml) [%]	inhibition at 50 µg/mL (Influenza (swine); 50 μg/ml) [%]	inhibition at 60 µg/mL (Influenza (swine); 60 μg/ml) [%]	inhibition at 80 µg/mL (Influenza (swine)) [%]	CC50 [2] [µg/mL]	MNTC [2] [µg/mL]	other results
NC1C2CCC(c3ccccc32)C1N (stereo not drawn) [Compound VII, 1,2,3,4-tetrahydro-1,4-ethanonaphthalen-exo-3-endo-2-diamine]	700	700	far less toxic than either the known antiviral agent Amantadine or compound I	775 to 800	800	30	20	67	80	57	60	80	83	90	97	100	100	100	> 100	> 100	inhibition at 40 µg/mL (Influenza A2 /Aichi/3/68; 31.6 TCID50): 87%; inhibition at 10 µg/mL (Influenza A2 /Aichi/3/68; Homo sapiens, 31.6 TCID50): 0%; inhibition at 10 µg/mL (Influenza A2 /Aichi/3/68; Homo sapiens, 100 TCID50): 0%; inhibition at 20 µg/mL (Influenza A2 /Aichi/3/68; Homo sapiens, 31.6 TCID50): 7%; inhibition at 20 µg/mL (Influenza A2 /Aichi/3/68; Homo sapiens, 100 TCID50): 0%; inhibition at 30 µg/mL (Influenza A2 /Aichi/3/68; Homo sapiens, 31.6 TCID50): 60%; inhibition at 50 µg/mL (Influenza A2 /Aichi/3/68; Homo sapiens, 31.6 TCID50): 95%; inhibition at 60 µg/mL (Influenza A2 /Aichi/3/68; Homo sapiens, 31.6 TCID50): 100%; inhibition at 70 µg/mL (Influenza A2 /Aichi/3/68; Homo sapiens, 31.6 TCID50): 100%; inhibition at 80 µg/mL (Influenza A2 /Aichi/3/68; Homo sapiens, 31.6 TCID50): 100%; inhibition at 90 µg/mL (Influenza A2 /Aichi/3/68; Homo sapiens, 31.6 TCID50): 100%; inhibition at 100 µg/mL (Influenza A2 /Aichi/3/68; Homo sapiens, 31.6 TCID50, read-out: % Inhibition): 100%; inhibition at 10 µg/mL (Influenza (swine); 10 μg/ml): 0%; inhibition at 20 µg/mL (Influenza (swine); 20 μg/ml): 56%; % Inhibition (Influenza (swine); 20 μg/ml, listed as 1,2,3,4-TETRAHYDRO-1,4-[…]-EXO-3-ENDO-2-DIAMINE.2HCl): 70%; inhibition at 100 µg/mL (Influenza (swine)): 100%
NC12CC3CC(CC(C3)C1)C2 [Amantadine, reference compound]	175	150				0	0	0	0	33	27	67		0	10	67	83	100	> 100	> 100	inhibition at 40 µg/mL (Influenza A2 /Aichi/3/68; 56.2 TCID50): 0%; inhibition at 30 µg/mL (Influenza A2 /Aichi/3/68; Homo sapiens, 56.2 TCID50): 0%; inhibition at 50 µg/mL (Influenza A2 /Aichi/3/68; Homo sapiens, 56.2 TCID50): 0%; inhibition at 60 µg/mL (Influenza A2 /Aichi/3/68; Homo sapiens, 56.2 TCID50): 53%; inhibition at 70 µg/mL (Influenza A2 /Aichi/3/68; Homo sapiens, 56.2 TCID50): 83%; inhibition at 80 µg/mL (Influenza A2 /Aichi/3/68; Homo sapiens, 56.2 TCID50): 70%; inhibition at 90 µg/mL (Influenza A2 /Aichi/3/68; Homo sapiens, 56.2 TCID50): 97%; inhibition at 100 µg/mL (Influenza A2 /Aichi/3/68; Homo sapiens, 56.2 TCID50): 87%; inhibition at 100 µg/mL (Influenza A2 /Aichi/3/68; Homo sapiens, 100 TCID50): 43%; % Inhibition (Influenza (swine); 40 μg/ml, listed as AMANTADINE HYDROCHLORIDE): 17%; % Inhibition (Influenza (swine); 50 μg/ml, listed as AMANTADINE HYDROCHLORIDE): 80%; % Inhibition (Influenza (swine); 60 μg/ml, listed as AMANTADINE HYDROCHLORIDE): 90%; inhibition at 70 µg/mL (Influenza (swine); 70 μg/ml): 97%; % Inhibition (Influenza (swine); 70 μg/ml, listed as AMANTADINE HYDROCHLORIDE): 93%; inhibition at 90 µg/mL (Influenza (swine); 90 μg/ml): 100%; inhibition at 100 µg/mL (Influenza (swine)): 100%
CN(C)C[C@H]1[C@H](N)[C@H]2C[C@@H]1c1ccccc12 (relative stereo) [Compound III, 1,2,3,4-tetrahydro-1,4-methanonaphthalen-exo-3-dimethylaminomethyl-endo-2-amine]	500	250	far less toxic than either the known antiviral agent Amantadine or compound I	750	500 to 750								90						> 100	> 100	inhibition at 33.3 µg/mL (Influenza A2 /Aichi/3/68; Homo sapiens, 33.3 μg/ml, 100 TCID50): 3%; inhibition at 66.7 µg/mL (Influenza A2 /Aichi/3/68; Homo sapiens, 66.7 μg/ml, 100 TCID50): 87%
